{
  "source": "patent US10456407B2",
  "about": "“Combination therapy for treating cancer” (Epizyme, Inc., priority 2015, dated 2019)",
  "tested_on": "WSU-DLCL2 cells",
  "assay": "RT2 Glucocorticoid signaling PCR array, WSU-DLCL2 (WSU) cell line (Table 4c)",
  "assay_type": "cell-based",
  "data": [
    {"smiles": "CCN(c1cc(-c2ccc(CN3CCOCC3)cc2)cc(C(=O)NCc2c(C)cc(C)[nH]c2=O)c1C)C1CCOCC1", "note": "[Compound 44]", "values": [
      {"measurement": "Ct Values, ACTB", "setting": "gene ACTB", "value": 15.450},
      {"measurement": "ΔCT (B2M), ACTB", "setting": "gene ACTB", "value": "−4.235"},
      {"measurement": "Ct Values, ADARB1", "setting": "gene ADARB1", "value": 25.386},
      {"measurement": "ΔCT (B2M), ADARB1", "setting": "gene ADARB1", "value": 5.701},
      {"measurement": "ΔΔCT, ADARB1", "setting": "gene ADARB1, compared to DMSO", "value": "−1.165"},
      {"measurement": "Ct Values, AFF1", "setting": "gene AFF1", "value": 27.925},
      {"measurement": "ΔCT (B2M), AFF1", "setting": "gene AFF1", "value": 8.240},
      {"measurement": "ΔΔCT, AFF1", "setting": "gene AFF1, compared to DMSO", "value": "−0.413"},
      {"measurement": "Ct Values, AK2", "setting": "gene AK2", "value": 21.365},
      {"measurement": "ΔCT (B2M), AK2", "setting": "gene AK2", "value": 1.680},
      {"measurement": "ΔΔCT, AK2", "setting": "gene AK2, compared to DMSO", "value": 0.486},
      {"measurement": "Ct Values, AMPD3", "setting": "gene AMPD3", "value": 27.162},
      {"measurement": "ΔCT (B2M), AMPD3", "setting": "gene AMPD3", "value": 7.477},
      {"measurement": "ΔΔCT, AMPD3", "setting": "gene AMPD3, compared to DMSO", "value": "−1.540"},
      {"measurement": "Ct Values, ANGPTL4", "setting": "gene ANGPTL4", "value": 30.487},
      {"measurement": "ΔCT (B2M), ANGPTL4", "setting": "gene ANGPTL4", "value": 10.802},
      {"measurement": "ΔΔCT, ANGPTL4", "setting": "gene ANGPTL4, compared to DMSO", "value": "−1.192"},
      {"measurement": "Ct Values, ANXA4", "setting": "gene ANXA4", "value": 24.659},
      {"measurement": "ΔCT (B2M), ANXA4", "setting": "gene ANXA4", "value": 4.974},
      {"measurement": "ΔΔCT, ANXA4", "setting": "gene ANXA4, compared to DMSO", "value": "−3.312"},
      {"measurement": "Ct Values, AQP1", "setting": "gene AQP1", "value": 33.645},
      {"measurement": "ΔCT (B2M), AQP1", "setting": "gene AQP1", "value": 13.960},
      {"measurement": "Ct Values, ARID68", "setting": "gene ARID68", "value": 26.126},
      {"measurement": "ΔCT (B2M), ARID68", "setting": "gene ARID68", "value": 6.441},
      {"measurement": "ΔΔCT, ARID68", "setting": "gene ARID68, compared to DMSO", "value": "−0.353"},
      {"measurement": "Ct Values, ASPH", "setting": "gene ASPH", "value": 22.415},
      {"measurement": "ΔΔCT, ASPH", "setting": "gene ASPH, compared to DMSO", "value": "−0.105"},
      {"measurement": "Ct Values, ATF4", "setting": "gene ATF4", "value": 20.470},
      {"measurement": "ΔCT (B2M), ATF4", "setting": "gene ATF4", "value": 0.785},
      {"measurement": "ΔΔCT, ATF4", "setting": "gene ATF4, compared to DMSO", "value": 0.361},
      {"measurement": "Ct Values, B2M", "setting": "gene B2M (normaliser)", "value": 19.685},
      {"measurement": "ΔCT (B2M), B2M", "setting": "gene B2M (normaliser)", "value": 0.000},
      {"measurement": "Ct Values, BCL6", "setting": "gene BCL6", "value": 20.795},
      {"measurement": "ΔCT (B2M), BCL6", "setting": "gene BCL6", "value": 1.110},
      {"measurement": "ΔΔCT, BCL6", "setting": "gene BCL6, compared to DMSO", "value": "−0.394"},
      {"measurement": "Ct Values, CEBPA", "setting": "gene CEBPA", "value": 27.014},
      {"measurement": "ΔCT (B2M), CEBPA", "setting": "gene CEBPA", "value": 7.329},
      {"measurement": "ΔΔCT, CEBPA", "setting": "gene CEBPA, compared to DMSO", "value": "−1.659"},
      {"measurement": "Ct Values, CEBPB", "setting": "gene CEBPB", "value": 26.770},
      {"measurement": "ΔCT (B2M), CEBPB", "setting": "gene CEBPB", "value": 7.085},
      {"measurement": "ΔΔCT, CEBPB", "setting": "gene CEBPB, compared to DMSO", "value": 1.269},
      {"measurement": "Ct Values, CREB1", "setting": "gene CREB1", "value": 23.413},
      {"measurement": "ΔCT (B2M), CREB1", "setting": "gene CREB1", "value": 3.728},
      {"measurement": "ΔΔCT, CREB1", "setting": "gene CREB1, compared to DMSO", "value": 0.008},
      {"measurement": "Ct Values, CREB3", "setting": "gene CREB3", "value": 25.459},
      {"measurement": "ΔCT (B2M), CREB3", "setting": "gene CREB3", "value": 5.774},
      {"measurement": "ΔΔCT, CREB3", "setting": "gene CREB3, compared to DMSO", "value": "−0.085"},
      {"measurement": "Ct Values, CREB3L4", "setting": "gene CREB3L4", "value": 24.392},
      {"measurement": "ΔCT (B2M), CREB3L4", "setting": "gene CREB3L4", "value": 4.707},
      {"measurement": "ΔΔCT, CREB3L4", "setting": "gene CREB3L4, compared to DMSO", "value": "−0.915"},
      {"measurement": "Ct Values, CYB561", "setting": "gene CYB561", "value": 31.478},
      {"measurement": "ΔCT (B2M), CYB561", "setting": "gene CYB561", "value": 11.793},
      {"measurement": "ΔΔCT, CYB561", "setting": "gene CYB561, compared to DMSO", "value": "−5.631"},
      {"measurement": "Ct Values, DDIT4", "setting": "gene DDIT4", "value": 24.404},
      {"measurement": "ΔCT (B2M), DDIT4", "setting": "gene DDIT4", "value": 4.719},
      {"measurement": "ΔΔCT, DDIT4", "setting": "gene DDIT4, compared to DMSO", "value": "−0.060"},
      {"measurement": "Ct Values, DUSP1", "setting": "gene DUSP1", "value": 27.284},
      {"measurement": "ΔCT (B2M), DUSP1", "setting": "gene DUSP1", "value": 7.599},
      {"measurement": "ΔΔCT, DUSP1", "setting": "gene DUSP1, compared to DMSO", "value": 1.370},
      {"measurement": "Ct Values, EDN1", "setting": "gene EDN1", "value": 26.349},
      {"measurement": "ΔCT (B2M), EDN1", "setting": "gene EDN1", "value": 6.664},
      {"measurement": "Ct Values, EHD3", "setting": "gene EHD3", "value": 24.270},
      {"measurement": "ΔCT (B2M), EHD3", "setting": "gene EHD3", "value": 4.585},
      {"measurement": "ΔΔCT, EHD3", "setting": "gene EHD3, compared to DMSO", "value": "−5.639"},
      {"measurement": "Ct Values, ERRFI1", "setting": "gene ERRFI1", "value": 32.771},
      {"measurement": "ΔCT (B2M), ERRFI1", "setting": "gene ERRFI1", "value": 13.086},
      {"measurement": "Ct Values, FK8PS", "setting": "gene FK8PS", "value": 23.267},
      {"measurement": "ΔCT (B2M), FK8PS", "setting": "gene FK8PS", "value": 3.582},
      {"measurement": "ΔΔCT, FK8PS", "setting": "gene FK8PS, compared to DMSO", "value": 0.159},
      {"measurement": "Ct Values, FOSL2", "setting": "gene FOSL2", "value": 34.140},
      {"measurement": "ΔCT (B2M), FOSL2", "setting": "gene FOSL2", "value": 14.455},
      {"measurement": "ΔΔCT, FOSL2", "setting": "gene FOSL2, compared to DMSO", "value": 2.796},
      {"measurement": "Ct Values, GAPDH", "setting": "gene GAPDH", "value": 17.275},
      {"measurement": "ΔCT (B2M), GAPDH", "setting": "gene GAPDH", "value": "−2.410"},
      {"measurement": "Ct Values, GDPD1", "setting": "gene GDPD1", "value": 27.494},
      {"measurement": "ΔCT (B2M), GDPD1", "setting": "gene GDPD1", "value": 7.809},
      {"measurement": "ΔΔCT, GDPD1", "setting": "gene GDPD1, compared to DMSO", "value": "−1.112"},
      {"measurement": "Ct Values, GHRHR", "setting": "gene GHRHR", "value": 39.957},
      {"measurement": "ΔCT (B2M), GHRHR", "setting": "gene GHRHR", "value": 20.272},
      {"measurement": "ΔΔCT, GHRHR", "setting": "gene GHRHR, compared to DMSO", "value": 5.086},
      {"measurement": "Ct Values, GLUL", "setting": "gene GLUL", "value": 28.395},
      {"measurement": "ΔCT (B2M), GLUL", "setting": "gene GLUL", "value": 8.710},
      {"measurement": "Ct Values, GOT1", "setting": "gene GOT1", "value": 23.827},
      {"measurement": "ΔCT (B2M), GOT1", "setting": "gene GOT1", "value": 4.142},
      {"measurement": "ΔΔCT, GOT1", "setting": "gene GOT1, compared to DMSO", "value": 0.708},
      {"measurement": "Ct Values, H6PD", "setting": "gene H6PD", "value": 25.976},
      {"measurement": "ΔCT (B2M), H6PD", "setting": "gene H6PD", "value": 6.291},
      {"measurement": "ΔΔCT, H6PD", "setting": "gene H6PD, compared to DMSO", "value": "−0.619"},
      {"measurement": "Ct Values, HNRPLL", "setting": "gene HNRPLL", "value": 24.170},
      {"measurement": "ΔCT (B2M), HNRPLL", "setting": "gene HNRPLL", "value": 4.485},
      {"measurement": "ΔΔCT, HNRPLL", "setting": "gene HNRPLL, compared to DMSO", "value": "−0.037"},
      {"measurement": "Ct Values, HPRT1", "setting": "gene HPRT1", "value": 22.793},
      {"measurement": "ΔCT (B2M), HPRT1", "setting": "gene HPRT1", "value": 3.108},
      {"measurement": "Ct Values, IL1RN", "setting": "gene IL1RN", "value": 28.388},
      {"measurement": "ΔCT (B2M), IL1RN", "setting": "gene IL1RN", "value": 8.703},
      {"measurement": "Ct Values, IL6R", "setting": "gene IL6R", "value": 33.814},
      {"measurement": "ΔCT (B2M), IL6R", "setting": "gene IL6R", "value": 14.129},
      {"measurement": "Ct Values, IL10", "setting": "gene IL10", "value": 34.229},
      {"measurement": "ΔCT (B2M), IL10", "setting": "gene IL10", "value": 14.544},
      {"measurement": "Ct Values, KLF9", "setting": "gene KLF9", "value": 28.881},
      {"measurement": "ΔCT (B2M), KLF9", "setting": "gene KLF9", "value": 9.196},
      {"measurement": "ΔΔCT, KLF9", "setting": "gene KLF9, compared to DMSO", "value": "−2.195"},
      {"measurement": "Ct Values, KLF13", "setting": "gene KLF13", "value": 23.800},
      {"measurement": "ΔCT (B2M), KLF13", "setting": "gene KLF13", "value": 4.115},
      {"measurement": "ΔΔCT, KLF13", "setting": "gene KLF13, compared to DMSO", "value": "−0.974"},
      {"measurement": "Ct Values, LOX", "setting": "gene LOX", "value": 34.399},
      {"measurement": "ΔCT (B2M), LOX", "setting": "gene LOX", "value": 14.714},
      {"measurement": "ΔΔCT, LOX", "setting": "gene LOX, compared to DMSO", "value": "−0.102"}
    ]}
  ]
}
